Source: US20250332173A1, “COMPOUNDS AND METHODS FOR MODULATING NUCLEIC ACID SPLICING” (REMIX THERAPEUTICS INC., priority 2021, published 2025)
Read-outs that look alike come from different tables or passages of the source.

Legend:
HTT mRNA = test: RT-qPCR splicing assay, HTT canonical junction (CJ) and alternative junction (AJ) mRNA; type: cell-based, human; conditions: Homo sapiens; for AC50: increase in HTT alternative junction (AJ) mRNA, read-out: HTT AJ AC50
Method in brief: (§1)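 A673 cells (normalized to PPIA) or K562 cells (normalized to GAPDH or GUSB) were treated 24 h at 37 °C with an 11-point 3-fold dilution series, top 10 uM, DMSO ≤0.25%. Cell lysates went to one-step RT-qPCR measuring canonical- and alternative-junction MYB or HTT transcripts.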

MYB mRNA = test: RT-qPCR splicing assay, MYB canonical junction (CJ) and alternative junction (AJ) mRNA; type: cell-based, human; conditions: Homo sapiens; for AC50: increase in MYB alternative junction (AJ) mRNA, read-out: MYB AJ AC50
Method in brief: as §1

SMN2 mRNA = test: RT-qPCR splicing assay, SMN2 canonical junction (CJ) mRNA; type: cell-based, human; conditions: Homo sapiens; Table 5 panel; canonical junction qPCR; compound concentration having 50% response in CJ decrease; read-out: SMN2 IC50 (decrease in CJ mRNA levels)
Method in brief: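 A673 or K562 cells were treated for 24 h at 37 °C with compound in 11-point 3-fold dilution (top 10 uM final, DMSO ≤0.25%). Lysates then went to one-step RT-qPCR measuring canonical-junction mRNA, normalized to GAPDH, GUSB or PPIA.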

[1] = system: K562 (human chronic myelogenous leukemia) cells; test: Cell Titer Glo 2.0 cell viability assay; type: cell-based; conditions: K562 cells, 72 hours, Cell Titer Glo 2.0, read-out: K562 GI50
[2] = decrease in HTT canonical junction (CJ) mRNA, RT-qPCR, read-out: HTT CJ IC50
[3] = Table 5 panel, canonical junction qPCR, compound concentration having 50% response in CJ decrease, read-out: HTT IC50 (decrease in CJ mRNA levels)
[4] = Table 5 panel, canonical junction qPCR, compound concentration having 50% response in CJ decrease, read-out: MYB IC50 (decrease in CJ mRNA levels)
[5] = decrease in MYB canonical junction (CJ) mRNA, RT-qPCR, read-out: MYB CJ IC50

| IC50 (HTT mRNA; [2]) [nM] | IC50 (HTT mRNA; [3]) [nM] | IC50 (MYB mRNA; [4]) [nM] | IC50 (MYB mRNA; [5]) [nM] | IC50 (SMN2 mRNA) [nM] | GI50 [1] [nM] | GI50 ([1]; Homo sapiens, K562, 72 h) [nM] | SMILES | AC50 (HTT mRNA; RT-qPCR) [nM] | AC50 (MYB mRNA; RT-qPCR) [nM] |
| --- | --- | --- | --- | --- | --- | --- | --- | --- | --- |
| < 100 | < 100 | < 100 | < 100 | < 100 | – | < 100 | Cc1cn2cc(-c3ccc4c(=O)n(C5CCNCC5)ccc4c3)cc(F)c2n1 [Compound 276] | < 100 | < 100 |
| 1000 to 10000 | 1000 to 10000 | 1000 to 10000 | 1000 to 10000 | 100 to 1000 | – | 100 to 1000 | Cc1cn2cc(-c3ccc4c(=O)n(C5CCNCC5)cnc4c3)nc2c(C)n1 [Compound 286] | 1000 to 10000 | 1000 to 10000 |
| > 10000 | > 10000 | 1000 to 10000 | > 10000 | 1000 to 10000 | – | 1000 to 10000 | CNc1cc(-c2cn3cc(C)nc3c(C)n2)cc2ncn(C3CCNCC3)c(=O)c12 [Compound 360, 7-{2,8-dimethylimidazo[1,2-a]pyrazine-6-yl}-5-(methylamino)-3-(piperidin-4-yl)quinazolin-4-one] | > 10000 | 1000 to 10000 |
| 1000 to 10000 | 1000 to 10000 | 1000 to 10000 | 1000 to 10000 | 100 to 1000 | – | 1000 to 10000 | Cc1cn2cc(-c3ccc4c(=O)n(C5CCN(C)CC5)cnc4c3)nc2c(C)n1 [Compound 302] | 1000 to 10000 | 1000 to 10000 |
| 100 to 1000 | 100 to 1000 | < 100 | 100 to 1000 | < 100 | – | 100 to 1000 | Cc1cn2cc(-c3cc(F)c4c(=O)n(C5CCNCC5)cnc4c3)cc(C)c2n1 [Compound 317] | 100 to 1000 | < 100 |
| 1000 to 10000 | 1000 to 10000 | 100 to 1000 | 100 to 1000 | < 100 | – | 1000 to 10000 | Cc1cn2cc(-c3ccc4c(=O)n(C5CCNCC5)cnc4c3)ncc2n1 [Compound 297] | 1000 to 10000 | 100 to 1000 |
| < 100 | < 100 | < 100 | < 100 | < 100 | – | 100 to 1000 | Cc1cn2nc(-c3cc(F)c4c(=O)n(C5CCNCC5)cnc4c3)cc2c(C)n1 [Compound 318] | < 100 | < 100 |
| 1000 to 10000 | 1000 to 10000 | 1000 to 10000 | 1000 to 10000 | 100 to 1000 | – | 1000 to 10000 | Cn1cc2cc(-c3cc(F)c4c(=O)n(C5CCNCC5)cnc4c3)cc(F)c2n1 [Compound 314] | 1000 to 10000 | 1000 to 10000 |
| 100 to 1000 | 100 to 1000 | < 100 | < 100 | < 100 | – | 100 to 1000 | Cc1cn2cc(-c3cc(F)c4c(=O)n([C@H]5CCN[C@H](C)C5)cnc4c3)cc(F)c2n1 [Compound 346, trans-5-fluoro-7-(8-fluoro-2-methylimidazo[1,2-a]pyridin-6-yl)-3-(2-methylpiperidin-4-yl)quina-zolin-4(3H)-one] | 100 to 1000 | < 100 |
| > 10000 | > 10000 | 1000 to 10000 | 1000 to 10000 | 100 to 1000 | – | 1000 to 10000 | Cc1cn2nc(-c3cc(O)c4c(=O)n(C5CCNC5)cnc4c3)cc(C)c2n1 (centres unmarked) [Compound 362, 7-{2,8-dimethylimidazo[1,2-b]pyridazin-6-yl}-5-hydroxy-3-(pyrrolidin-3-yl)quinazolin-4-one] | > 10000 | 1000 to 10000 |
| < 100 | 100 to 1000 | 100 to 1000 | < 100 | < 100 | – | 100 to 1000 | Cc1cn2nc(-c3cc(F)c4c(=O)n([C@@H]5CCNC6(CC6)C5)cnc4c3)cc(C)c2n1 [Compound 356] | 100 to 1000 | 100 to 1000 |
| 100 to 1000 | 100 to 1000 | 100 to 1000 | 100 to 1000 | < 100 | – | 1000 to 10000 | Cc1cn2nc(-c3ccc4c(=O)n(C5CCNCC5)cnc4c3)cc2c(C)n1 [Compound 298] | 100 to 1000 | 100 to 1000 |

The next lines start with the compound.

| SMILES | IC50 (HTT mRNA; [2]) [nM] | IC50 (HTT mRNA; [3]) [nM] | IC50 (MYB mRNA; [4]) [nM] | IC50 (MYB mRNA; [5]) [nM] | IC50 (SMN2 mRNA) [nM] | GI50 [1] [nM] | GI50 ([1]; Homo sapiens, K562, 72 h) [nM] | AC50 (HTT mRNA; RT-qPCR) [nM] | AC50 (MYB mRNA; RT-qPCR) [nM] |
| --- | --- | --- | --- | --- | --- | --- | --- | --- | --- |
| Cc1cn2nc(-c3ccc4c(=O)n([C@@H]5CCNC6(CC6)C5)cnc4c3)cc(C)c2n1 [Compound 350, 3-[(7R)-4-azaspiro[2.5]octan-7-yl]-7-{2,8-dimethylimidazo[1,2-b]pyridazin-6-yl}quinazolin-4-one] | < 100 | < 100 | < 100 | < 100 | < 100 | 100 to 1000 | – | < 100 | < 100 |
| Cc1nc2c(F)cc(-c3ccc4c(=O)n(C5CCNCC5)cnc4c3)cc2s1 [Compound 285] | > 10000 | 1000 to 10000 | 100 to 1000 | 1000 to 10000 | < 100 | – | 100 to 1000 | 1000 to 10000 | 100 to 1000 |
| Cc1cn2nc(-c3ccc4c(c3)CCN(C3CCNC3)C4=O)cc(C)c2n1 (centres unmarked) [Compound 269] | > 10000 | > 10000 | > 10000 | > 10000 | 1000 to 10000 | – | > 10000 | > 10000 | > 10000 |
| Cc1cn2nc(-c3ccc4c(c3)CCN(C3CCN(C)C3)C4=O)cc(C)c2n1 (centres unmarked) [Compound 282] | > 10000 | > 10000 | > 10000 | > 10000 | 1000 to 10000 | – | > 10000 | > 10000 | > 10000 |
| Cc1cn2cc(-c3cc(F)c4c(=O)n([C@H]5CCNC[C@@H]5O)cnc4c3)cc(F)c2n1 [Compound 347, 5-fluoro-7-{8-fluoro-2-methylimidazo[1,2-a]pyridin-6-yl}-3-[(3S,4S)-3-hydroxypiperidin-4-yl]quinazolin-4-one] | > 10000 | > 10000 | 100 to 1000 | 1000 to 10000 | > 10000 | – | > 10000 | > 10000 | 1000 to 10000 |
| Cc1cn2nc(-c3ccc4c(=O)n(C5CCCNCC5)ncc4c3)cc(C)c2n1 (centres unmarked) [Compound 283] | 100 to 1000 | 100 to 1000 | 100 to 1000 | 100 to 1000 | < 100 | – | 100 to 1000 | 100 to 1000 | 100 to 1000 |
| Cc1cn2nc(-c3ccc4c(=O)n([C@H]5CCN(C)[C@H](C)C5)ncc4c3)cc(C)c2n1 [Compound 278] | < 100 | < 100 | 100 to 1000 | 100 to 1000 | < 100 | – | 100 to 1000 | < 100 | 100 to 1000 |
| Cc1cn2nc(-c3ccc4c(=O)n(C5CCN(C)C5)ncc4c3)cc(C)c2n1 (centres unmarked) [Compound 271] | 1000 to 10000 | 1000 to 10000 | 1000 to 10000 | 1000 to 10000 | 100 to 1000 | – | 1000 to 10000 | 1000 to 10000 | 1000 to 10000 |
| Cc1cn2nc(-c3ccc4c(=O)n(C5CCNC(C)(C)C5)ncc4c3)cc(C)c2n1 (centres unmarked) [Compound 279] | 100 to 1000 | 100 to 1000 | < 100 | 100 to 1000 | < 100 | – | 1000 to 10000 | 100 to 1000 | < 100 |
| Cc1cn2cc(-c3cc(F)c4c(=O)n([C@H]5CCNC[C@H]5F)cnc4c3)cc(F)c2n1 [Compound 338] | 1000 to 10000 | 100 to 1000 | < 100 | < 100 | < 100 | – | 100 to 1000 | 100 to 1000 | < 100 |
| Cc1cn2cc(-c3cc(F)c4c(=O)n(C5CNCCC5=O)cnc4c3)cc(F)c2n1 (centres unmarked) [Compound 352, 5-fluoro-7-{8-fluoro-2-methylimidazo[1,2-a]pyridin-6-yl}-3-(4-oxopiperidin-3-yl)quinazolin-4-one] | > 10000 | > 10000 | > 10000 | > 10000 | > 10000 | – | > 10000 | > 10000 | > 10000 |
| CC[C@@H]1C[C@H](n2ncc3cc(-c4cc(C)c5nc(C)cn5n4)ccc3c2=O)CCN1 [Compound 304] | 1000 to 10000 | 100 to 1000 | 100 to 1000 | 100 to 1000 | < 100 | – | 100 to 1000 | 1000 to 10000 | 100 to 1000 |
| Cc1cc(-c2cc(F)c3c(=O)n(C4CCNC5(CC5)C4)cnc3c2)nc2cn(C)nc12 (centres unmarked) [Compound 361, 3-{4-azaspiro[2.5]octan-7-yl}-7-{2,7-dimethylpyrazolo[4,3-b]pyridin-5-yl}-5-fluoroquinazolin-4-one] | < 100 | < 100 | < 100 | < 100 | < 100 | – | 100 to 1000 | < 100 | < 100 |
